The text below walks through data of ChEMBL document CHEMBL1201862, “PubChem BioAssay data set” (2004).

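Five compound concentrations were applied to cells in 96-well plates for 48 hours; endpoints were derived by simple linear interpolation of the resulting dose-response curve. GI50 is the concentration that inhibits growth by half.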 The source made the active and inactive calls. No stated cut-off is given here; in the data, active = GI50 up to about 1.1 µM and inactive = higher. A value given as a limit tells only on which side of the number the result lay.

Common to all, as to experiment: NCI-60 cell line screen, 48 h
The subject of assay [1] is A498.
The subject of assay [2] is ACHN.
Assay [3] concerns DU-145.
The subject of assay [4] is HL-60.
Assay [5] deals with KM12.
Assay [6] relates to LOX IMVI.
In assay [7] the test system is MDA-MB-435.
The subject of assay [8] is MDA-N.
Assay [9] has as its system NCI-H226.
The subject of assay [10] is NCI-H522.
The subject of assay [11] is NCI/ADR-RES.
Assay [12] has as its system OVCAR-3.
Assay [13] has as its system RXF 393.
Assay [14] deals with SF-268.
Assay [15] deals with SF-295.
Assay [16] has as its system SK-MEL-28.
Assay [17] relates to SK-OV-3.
For assay [18], the system named is SNB-75.
The subject of assay [19] is TK-10.
The test system of assay [20] is UACC-62.

As to `c1cc(C2=NCCO2)c2ccsc2c1`, the GI50 in assay [1], in assay [2], in assay [3], in assay [4], in assay [5] and in assay [6] was > 100 µM (inactive) throughout. In addition, the GI50 in assay [7], in assay [8], in [9], in assay [10], in assay [11] and in [12] was > 100 µM (inactive) in each case. Further, the GI50 in assay [13] is > 100 µM (inactive); in [14], > 100 µM (inactive); in assay [15], > 100 µM (inactive); in [16], > 100 µM (inactive); in assay [17], > 100 µM (inactive); in assay [18], 0.0573 µM (active). Also, the GI50 in [19] and in assay [20] was > 100 µM (inactive) throughout.

In the case of `COC(=N)C1(C#N)NC(c2ccsc2)C(C#N)(C#N)NC1c1ccsc1` (stereo not given), the GI50 is > 100 µM (inactive) in [1]; > 100 µM (inactive) in assay [2]; > 100 µM (inactive) in assay [3]; 78.3 µM (inactive) in [4]; > 100 µM (inactive) in [5]; > 100 µM (inactive) in assay [6]. Also, the GI50 in [7], in assay [8], in assay [9], in assay [10], in [11] and in assay [12] was > 100 µM (inactive) in each case. Also, the GI50 is > 100 µM (inactive) in assay [13]; > 100 µM (inactive) in assay [14]; > 100 µM (inactive) in assay [15]; > 100 µM (inactive) in assay [16]; > 100 µM (inactive) in [17]; 88.5 µM (inactive) in [18]. The GI50 in [19] and in assay [20] was > 100 µM (inactive) each time.

With `COc1ccc(N2C(=O)[C@H]3[C@H]4CC(C(C)(C)C)CC[C@H]4c4c(n(C)c5ccccc45)[C@H]3C2=O)cc1` (stereo not given in full), the GI50 in assay [1] is > 46.5 µM (inactive); in assay [2] it was > 100 µM (inactive); in assay [3], > 100 µM (inactive); in assay [4], > 90.6 µM (inactive); in assay [5], > 10 µM (inactive); in assay [6] it was > 100 µM (inactive). Further, the GI50 was > 100 µM (inactive) in assay [7]; > 100 µM (inactive) in [8]; > 100 µM (inactive) in assay [9]; > 10 µM (inactive) in assay [10]; > 100 µM (inactive) in assay [11]; > 100 µM (inactive) in [12]. In addition, the GI50 was > 23.7 µM (inactive) in assay [13]; > 100 µM (inactive) in assay [14]; > 100 µM (inactive) in [15]; > 100 µM (inactive) in assay [16]; > 100 µM (inactive) in [17]; > 87.7 µM (inactive) in assay [18]. In addition, the GI50 in [19] is > 10 µM (inactive); in assay [20], 53.5 µM (inactive).

Take `COC1(C)CCC(OS(C)(=O)=O)CO1` (stereo not given): the GI50 in assay [1], in assay [2], in assay [3], in assay [4], in assay [5] and in assay [6] was > 100 µM (inactive) each time. Moreover, the GI50 in [7], in [8], in assay [9], in assay [10], in assay [11] and in assay [12] was > 100 µM (inactive) in each case. In addition, the GI50 in [13], in assay [14], in assay [15], in assay [16], in assay [17] and in assay [18] was > 100 µM (inactive) throughout. The GI50 in [19] and in assay [20] was > 100 µM (inactive) throughout.

For `CCOC(=O)N1CC2(C(=O)OC)C=CC1C(C(=O)OC)C2` (stereo not given), the GI50 in assay [1], in assay [2], in [3], in assay [4], in [5] and in assay [6] was > 100 µM (inactive) throughout. The GI50 in [7], in assay [8], in assay [9], in [10], in [11] and in [12] was > 100 µM (inactive) each time. Also, the GI50 in [13], in assay [14], in assay [15], in [16], in [17] and in assay [18] was > 100 µM (inactive) in each case. Also, the GI50 in [19] and in assay [20] was > 100 µM (inactive) throughout.

On to `Cc1cc2c3ccccc3n(C)c2c2c1C(=O)C=CC2=O`, for which the GI50 is 17.8 µM (inactive) in assay [1]; 20.9 µM (inactive) in [2]; 21.7 µM (inactive) in assay [3]; 5.24 µM (inactive) in assay [4]; 17 µM (inactive) in assay [5]; 17.5 µM (inactive) in assay [6]. Further, the GI50 in assay [7] was 18.9 µM (inactive); in [8] it was 12.9 µM (inactive); in assay [9] it was 21.2 µM (inactive); in [10] it was 16.1 µM (inactive); in assay [11] it was 33.9 µM (inactive); in [12], 15 µM (inactive). Further, the GI50 is 6.64 µM (inactive) in assay [13]; 17.2 µM (inactive) in assay [14]; 27.7 µM (inactive) in assay [15]; 21.5 µM (inactive) in assay [16]; 21.1 µM (inactive) in assay [17]; 27 µM (inactive) in assay [18]. Besides, the figures for the GI50 in [19] and in assay [20] were 16.5 µM (inactive) and 16.3 µM (inactive), respectively.

Consider `O=C1c2ccccc2CC12Cc1ccc3c(c1C2)CCC3` (stereo not given), for which the GI50 is 85.3 µM (inactive) in assay [1]; 22.6 µM (inactive) in [2]; 34.6 µM (inactive) in [3]; 12.6 µM (inactive) in [4]; 24.4 µM (inactive) in [5]; 12.4 µM (inactive) in [6]. Also, the GI50 is 16.1 µM (inactive) in [7]; 19.8 µM (inactive) in [8]; 22.8 µM (inactive) in assay [9]; 4.54 µM (inactive) in assay [10]; 4.24 µM (inactive) in assay [11]; 17.4 µM (inactive) in assay [12]. Further, the GI50 is 16.4 µM (inactive) in assay [13]; 30 µM (inactive) in assay [14]; 25.4 µM (inactive) in [15]; 31 µM (inactive) in assay [16]; 33.3 µM (inactive) in assay [17]; 20.3 µM (inactive) in assay [18]. Also, the GI50 in assay [19] is 2.36 µM (inactive); in [20], 20.3 µM (inactive).

For the compound `C=C1C2CCC3C4(C)CCCC(C)(C(=O)O)C4CCC3(C2)C1OC(=O)/C(C)=C/C` (stereo not given), the GI50 was 25.3 µM (inactive) in assay [1]; 36.1 µM (inactive) in [2]; 42.3 µM (inactive) in assay [3]; 29.9 µM (inactive) in assay [4]; 17.3 µM (inactive) in assay [5]; 34.5 µM (inactive) in assay [6]. Besides, the GI50 in assay [7] was 34 µM (inactive); in [8], 22.6 µM (inactive); in [9], 36 µM (inactive); in assay [10], 31.8 µM (inactive); in [11] it was 21.1 µM (inactive); in assay [12] it was 19.8 µM (inactive). The GI50 in assay [13] was 15.9 µM (inactive); in assay [14] it was 38.7 µM (inactive); in assay [15] it was 20.3 µM (inactive); in [16], 51.6 µM (inactive); in assay [17], 27.5 µM (inactive); in [18], 70.8 µM (inactive). The values for the GI50 in [19] and in assay [20] were 72.8 µM (inactive) and 25.6 µM (inactive), respectively.

Regarding `CC1OC(O[C@H]2CC[C@]3(C=O)[C@H]4CC[C@]5(C)[C@H](C6=CC(=O)OC6)CC[C@]5(O)[C@@H]4C=C[C@]3(O)C2)CC(O)C1O` (stereo not given in full), the GI50 is 0.176 µM (active) in assay [1]; 0.106 µM (active) in assay [2]; 0.128 µM (active) in [3]; 0.196 µM (active) in assay [4]; 0.676 µM (active) in [5]; 0.292 µM (active) in assay [6]. Further, the GI50 is 0.346 µM (active) in assay [7]; 0.332 µM (active) in [8]; 0.514 µM (active) in assay [9]; 0.0615 µM (active) in [10]; 0.27 µM (active) in [11]; 0.15 µM (active) in [12]. Also, the GI50 was 0.0661 µM (active) in assay [13]; 0.176 µM (active) in assay [14]; 0.13 µM (active) in assay [15]; 0.692 µM (active) in [16]; 0.502 µM (active) in assay [17]; 0.484 µM (active) in assay [18]. Moreover, the GI50 in assay [19] was 0.29 µM (active); in assay [20], 0.434 µM (active).

For the compound `COc1cc2c(cc1OC)[C@H]1C(=O)c3cc4c(cc3[C@H]1N(C)C2=O)OCO4`, the GI50 in [1] was 8.43 µM (inactive); in assay [2] it was 0.682 µM (active); in assay [3], 8.43 µM (inactive); in assay [4], 1.77 µM (inactive); in [5], 36.6 µM (inactive); in assay [6], 1.5 µM (inactive). In addition, the GI50 in assay [7] is 16.6 µM (inactive); in assay [8], 12.1 µM (inactive); in assay [9], 1.81 µM (inactive); in assay [10], 1.06 µM (active); in assay [11], 4.81 µM (inactive); in assay [12], 19.2 µM (inactive). Further, the GI50 in assay [13] is 21.8 µM (inactive); in assay [14], 4.17 µM (inactive); in [15], 2.35 µM (inactive); in [16] it was > 100 µM (inactive); in [17] it was 6.7 µM (inactive); in assay [18] it was 8.77 µM (inactive). Further, the GI50 in [19] was > 100 µM (inactive); in [20], 0.879 µM (active).
